Experimental data published in ChEMBL document CHEMBL1135708, “Synthesis of 1-(3,4-dihydroxy-5-nitrophenyl)-2-phenyl-ethanone and derivatives as potent and long-acting peripheral inhibitors of catechol-O-methyltransferase” (J Med Chem, 2002).

Tests used:
[1] = target: T1, Catechol O-methyltransferase (Rattus norvegicus) (UniProt P22734); test: Percent inhibition of Catechol O-methyltransferase activity in rat liver at dose of 30 mg/kg determined at 6 hr after its administration; type: organism-based; design: dose 30 mg/kg
T1 sequence (whole entry): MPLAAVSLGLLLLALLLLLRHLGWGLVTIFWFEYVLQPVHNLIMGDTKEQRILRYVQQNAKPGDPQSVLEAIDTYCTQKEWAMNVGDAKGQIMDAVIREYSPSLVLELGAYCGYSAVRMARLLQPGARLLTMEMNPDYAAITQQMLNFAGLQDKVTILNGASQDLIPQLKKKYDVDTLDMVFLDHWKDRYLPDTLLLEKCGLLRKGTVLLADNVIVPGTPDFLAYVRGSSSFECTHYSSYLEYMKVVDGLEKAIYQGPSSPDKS

[2] = target: T1, Catechol O-methyltransferase (Rattus norvegicus); test: Percent inhibition of Catechol O-methyltransferase activity in rat brain at dose of 30 mg/kg determined at 6 h after its administration; type: organism-based; design: dose 30 mg/kg

SMILES	inhibition [1] [%]	inhibition [2] [%]
COc1ccc(CC(=O)c2cc(OC(C)=O)c(OC(C)=O)c([N+](=O)[O-])c2)cc1	72	25
CC(=O)Oc1cc(C(=O)C2(c3ccccc3)CCCCC2)cc([N+](=O)[O-])c1OC(C)=O	14	19
CC(=O)Oc1cc(C(=O)C(C)c2ccccc2)cc([N+](=O)[O-])c1OC(C)=O (stereo not given)	42	44
CC(=O)Oc1cc(C(=O)C(C)(C)c2ccccc2)cc([N+](=O)[O-])c1OC(C)=O	19	23
CC(=O)Oc1cc(C(=O)Cc2ccc([N+](=O)[O-])cc2)cc([N+](=O)[O-])c1OC(C)=O	49	0
O=C(CC1CCCCC1)c1cc(O)c(O)c([N+](=O)[O-])c1	72	39
CC(=O)Oc1cc(C(=O)Cc2ccccc2[N+](=O)[O-])cc([N+](=O)[O-])c1OC(C)=O	28	20
CC(=O)Oc1cc(C(=O)C(Br)c2ccccc2)cc([N+](=O)[O-])c1OC(C)=O (stereo not given)	48	20
CC(=O)Oc1cc(C(=O)C(Cc2ccccc2)c2ccccc2)cc([N+](=O)[O-])c1OC(C)=O (stereo not given)	63	44

Now from value to compound:

inhibition [1] [%]	inhibition [2] [%]	SMILES
15	29	O=c1oc(-c2cc(O)c(O)c([N+](=O)[O-])c2)cc2ccccc12
78	28	O=C(Cc1ccc(-c2ccccc2)cc1)c1cc(O)c(O)c([N+](=O)[O-])c1
69	12	O=C(Cc1ccc(Cl)cc1)c1cc(O)c(O)c([N+](=O)[O-])c1
0	10	O=[N+]([O-])c1cc(CCc2ccccc2)cc(O)c1O
83	17	O=C(Cc1ccc2ccccc2c1)c1cc(O)c(O)c([N+](=O)[O-])c1
39	34	O=C(Cc1ccccc1C(=O)O)c1cc(O)c(O)c([N+](=O)[O-])c1
13	7	O=C(c1cc(O)c(O)c([N+](=O)[O-])c1)C(c1ccccc1)c1ccccc1
74	33	Cc1ccccc1CC(=O)c1cc(O)c(O)c([N+](=O)[O-])c1
83	23	Cc1ccc(CC(=O)c2cc(O)c(O)c([N+](=O)[O-])c2)cc1
70	10	O=C(Cc1cccc2ccccc12)c1cc(O)c(O)c([N+](=O)[O-])c1
48	13	O=[N+]([O-])c1cc(/C(Cc2ccccc2)=N\O)cc(O)c1O
